Entries after “also recorded” stand apart in the source; their conditions may differ.
Experiments:
hCB2 = target: T1, hCB2 (Homo sapiens, UniProt P34972); experiment: Radioligand ([3H]CP-55,940) displacement binding in hCB2-CHO-K1 cell membranes
T1 construct: purchased PerkinElmer ES111-M400UA; host or cells: CHO-K1 cells stably transfected
Experimental: The assay was performed as described previously. […] Plasma membranes were from cultured CHO-K1 cells stably transfected with human CB2R (Perkin Elmer). Two microgram plasma membrane protein was used in a 1 mL reaction mixture. Ki values were derived by computerized curve fitting and using the Cheng-Prusoff equation to account for the affinity of the radioligand, using the GraphPad Prism 8 program (GraphPad Prism Software Inc.).

cannabinoid receptor CB2 [1] = target: T2, cannabinoid receptor CB2 (Homo sapiens, UniProt P34972); experiment: GEF G protein activation assay on purified CB2 reconstituted in liposomes; assay type: biochemical; set-up: E. coli construct) (cleaved yes); twin-Streptag (N); His10 (C); made in house; host or cells: E. coli BL21 (DE3) and Expi293F GNTI-
T2 sequence (P34972 whole entry): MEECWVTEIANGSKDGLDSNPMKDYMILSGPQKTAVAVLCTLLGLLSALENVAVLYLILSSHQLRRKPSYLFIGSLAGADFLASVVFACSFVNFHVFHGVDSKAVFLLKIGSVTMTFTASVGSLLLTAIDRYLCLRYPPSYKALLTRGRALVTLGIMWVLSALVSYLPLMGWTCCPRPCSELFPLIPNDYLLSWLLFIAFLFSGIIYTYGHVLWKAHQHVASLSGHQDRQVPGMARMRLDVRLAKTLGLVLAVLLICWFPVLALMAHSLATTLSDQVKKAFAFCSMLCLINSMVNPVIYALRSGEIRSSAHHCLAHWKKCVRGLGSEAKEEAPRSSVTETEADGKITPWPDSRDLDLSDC
Text: To assess the possible role of post-translational modifications of CB2 on its activation by the MRI ligands, the recombinant CB2 receptor was isolated from two different expression cell lines, E. coli BL21 (DE3)[41] and Expi293F GNTI^-[42]. The protein was purified and reconstituted into lipid bilayers containing 1-palmitoyl-2-oleoyl-glycero-3-phosphocholine (POPC) and, 1-palmitoyl-2-oleoyl-sn-glycero-3-phospho-(1′-rac-glycerol) (POPG) at a molar ratio of 3/1, either supplemented or not supplemented with cholesterol, as described in “Methods”[10],[13]. We reported previously that the presence of phospholipids with a negatively charged headgroup stabilizes CB2 protein in lipid bilayers. Therefore, purified CB2 was reconstituted into POPC/POPG (3/1, mol/mol) liposomes containing 0, 20 and 40 mol% cholesterol (reported as total content of lipids) as described in “Methods”. In one case, the protein purified from E. coli cells was reconstituted into lipids extracted from brain tissue (Avanti Polar Lipids). The ratio of protein-to-lipid in the resulting samples was in the range of 1:850 to1:1100 (mol/mol). The levels of protein, and the density of ligand binding sites for receptor preparations reconstituted in liposomes with different content of cholesterol varied only slightly (Supporting Fig. 5a,b).
Figure 7 Activation of G protein on CB2 receptor reconstituted in liposomes. Liposome composition: 75% POPC, 25% POPG and cholesterol content relative to total phospholipids as indicated, or total lipids extracted from bovine brain, as indicated. Proteins were reconstituted at a protein-to-lipid ratio in the range 1:850 to 1:1100 mol/mol. (a–d) CB2 purified from E. coli cells. (e,f) CB2 purified from Expi293F GNTI^- cells. Average values of four independent measurements are plotted (n = 4). Dotted lines represent the rates of activation of G protein in the absence of a ligand.
Reconstitution of the purified CB2 into liposomes was performed as described earlier. Briefly, 200 μg of the purified protein was mixed with 2 mg of lipid mixture (POPC:POPG, 3:1, mol/mol without or with addition or 20 mol% or 40 mol% of cholesterol) solubilized in 1% CHAPS at a concentration of 5 mg lipid/mL, and incubated on ice for 30 min. The detergents were then removed on 4 mL Detergent Removal spin column (Pierce), according to manufacturer’s instructions. The combined filtrate containing proteoliposomes was collected, and aliquots frozen in liquid nitrogen. Frozen liposomes were stored at − 80 °C until further use. Content of protein in proteoliposomes was determined by BioRad DC assay.
(§1) The subunits of G protein were expressed and purified as described previously. The nucleotide exchange assay was performed as previously described.

cannabinoid receptor CB2 [2] = target: T2, cannabinoid receptor CB2; experiment: [35S]GTP nucleotide exchange (GEF) G protein activation assay on CB2 in cell membrane preparations; assay type: biochemical; set-up: purchased PerkinElmer; Millipore ChemiScreen; Applied Cell Sciences; Signal Screen (Sf9); E. coli BL21 (DE3) and Expi293F membranes were made in house; ES111-M400UA; A318; 6110130; host or cells: CHO, CHO-K1, Sf9, Expi293F, Expi293F GNTI-, E. coli BL21 (DE3)
Text: To better understand the reason for these discrepancies, we assessed the activation of CB2 receptor by the in vitro G protein activation assay that measures the rates of nucleotide exchange on the Gα subunit of G protein (GEF assay) as described previously[33],[34]. The assay reports the rates of formation of the complex of [^35S]-GTPγS, a homolog of GTP, with the Gα subunit of G protein. Typical assay conditions require small (nanogram) quantities of the receptor protein either in cell membranes or reconstituted into lipid bilayers. The readout of the assay is the amount of the non-hydrolysable complex of Gα with [^35S]-GTPγS which, under selected experimental conditions, is proportional to the amount of activated receptor in the assay.
Figure 3 GEF of CB2 expressed in: (a) E. coli membranes and (b) CHO membranes (Millipore EMD). 2 μg of total protein per assay. Each point represents an average of four independent measurements (n = 4). Ligands were added at a concentration of 2 μM to ensure saturation of the receptor, and G protein was added as described in “Methods”. The dotted line indicates the rates of activation of G protein in the absence of a ligand. The rates of activation with […] are set to 100%, and rates of activation in the presence of SR-144,528 to 0%.
Figure 4 GEF on CB2 expressed in different cell lines. An amount of 2 μg of membrane protein per assay was used. Each data points represents an average of four independent measurements (n = 4) with error rates indicated by the bars. 100% represents full activation in the presence of 2 μM of CP-55,940, and 0%–with 2 μM SR-144,528.
as §1

T1 sequence (P34972 whole entry): as above

CC(=O)OCCn1c(=NC(=O)C2C(C)(C)C2(C)C)sc2cc(Cl)ccc21 [MRI-2646, 2-(6-Chloro-2-((2,2,3,3-tetramethylcyclopropane-1-carbonyl)imino)benzo[d]thiazol-3(2H)-yl)ethyl acetate] was tested, and the Ki (hCB2) was 0.079 ± 0.011 nM, the “Pharmacological category in GEF assay” value (cannabinoid receptor CB2 [1]; CB2 from E. coli, POPC/POPG liposomes devoid of cholesterol) was “partial agonist” and the “Pharmacological category in GEF assay” value (cannabinoid receptor CB2 [1]; CB2 from E. coli, liposomes with 20% or 40% cholesterol or brain lipid extract) was “partial inverse agonist”. For the same molecule, the “Pharmacological category in GEF assay” value (cannabinoid receptor CB2 [1]; CB2 from Expi293F GNTI- (HEK) cells, liposomes with 40% of cholesterol) was “partial inverse agonist”, the “Pharmacological category in GEF assay” value (cannabinoid receptor CB2 [1]; CB2 from Expi293F GNTI- cells, liposomes without cholesterol) was “partial agonist” and the “Pharmacological category in GEF assay” value (cannabinoid receptor CB2 [2]; CB2 in CHO membranes (EMD Millipore), ligand 2 μM) was “partial inverse agonist”. The “Pharmacological category in GEF assay” value (cannabinoid receptor CB2 [2]; CB2 in CHO membranes (PerkinElmer)) was “neutral antagonist”, the “Pharmacological category in GEF assay” value (cannabinoid receptor CB2 [2]; CB2 in CHO-K1 membranes (Applied Cell Sciences)) was “partial inverse agonist” and the “Pharmacological category in GEF assay” value (cannabinoid receptor CB2 [2]; CB2 in E. coli BL21 (DE3) membranes (untreated), ligand 2 μM) was “partial agonist; also recorded: agonistic effects; also recorded: weaker agonist”. The “Pharmacological category in GEF assay” value (cannabinoid receptor CB2 [2]; CB2 in Expi293F GNTI- membranes) was “partial inverse agonist”, the “Pharmacological category in GEF assay” value (cannabinoid receptor CB2 [2]; CB2 in Expi293F membranes) was “partial inverse agonist” and the “Pharmacological category in GEF assay” value (cannabinoid receptor CB2 [2]; CB2 in baculovirus infected insect Sf9 cell membranes) was “partial agonist”. For the same molecule, the “Pharmacological category in GEF assay” value (cannabinoid receptor CB2 [2]; CHO membranes (PerkinElmer), with and without exogenous G protein) was “neutral antagonist”, the “Pharmacological category in GEF assay” value (cannabinoid receptor CB2 [2]; E. coli membranes treated with 20 mM MβCD/cholesterol) was “neutral antagonist” and the “Pharmacological category in GEF assay” value (cannabinoid receptor CB2 [2]; Expi293F membranes treated with 20 mM MβCD (cholesterol depleted)) was “partial agonist”. The “Pharmacological category in GEF assay” value (cannabinoid receptor CB2 [2]; Expi293F membranes, with and without exogenous G protein) was “inverse agonist”, the “Pharmacological category in GEF assay” value (cannabinoid receptor CB2 [2]; Sf9 membranes, with and without exogenous G protein) was “partial agonist” and the “Pharmacological category on CB2” value (cannabinoid receptor CB2 [2]; bacterial- and insect-cell membranes) was “partial agonist”. For the same molecule, the “Pharmacological category on CB2” value (cannabinoid receptor CB2 [2]; cholesterol-containing membranes) was “neutral antagonist or a partial inverse agonist; also recorded: either as an inverse agonist or a neutral antagonist”, the “Pharmacological category on CB2” value (cannabinoid receptor CB2 [2]; mammalian cell membranes) was “inverse agonist or neutral antagonist” and the “Pharmacological category on CB2” value (cannabinoid receptor CB2 [2]; membranes devoid of cholesterol) was “partial agonist”.

From article PMC7881127, “Cholesterol as a modulator of cannabinoid receptor CB2 signaling” (Scientific Reports, 2021)
